We go through seven compounds from patent US7989590B2, “Peptides that increase collagen or hyaluronic acid production” (Rohto Pharmaceutical Co., Ltd, priority 2005, dated 2011).

Data set [1] relates to Fibroblasts derived from human normal skin (CRL-1836; ATCC). Description: Toxicity test: number of viable cells with Cell Counting Kit-8. Conditions: for Number of Viable Cells (cells): cells after 72 hours of culture. In general terms: Formazan colour is commonly taken as a measure of viable cells.
Text: (§1) For the cells after the culture solution was collected in Example 6, the number of viable cells was counted in the same manner as in Example 4.
(§2) For the cells after the culture solution was collected in Example 10, the number of viable cells was counted as in the same manner in Example 4.
(§3) For the cells after the culture solution was collected in Example 14, the number of viable cells was counted in the same manner as in Example 4.
(§4) For the cells after the culture solution was collected in Example 17, the number of viable cells was counted in the same manner as in Example 4.
(§5) For the cells after the culture solution was collected in Example 20, the number of viable cells was counted in the same manner as in Example 4.
Data set [2] shares this test system.
Text: as §1, §2, §3, §4, §5

Read-outs that look alike come from different tables or passages of the source. Where a SMILES comes first, the peptide text is derived from it. Where no end group is shown, it is not given here.

Consider `CC(C)C[C@H](N)C(=O)N[C@@H](CCC(=O)O)C(=O)N[C@@H](Cc1c[nH]cn1)C(=O)N[C@@H](C)C(N)=O` [C-terminal-Amidated LEHA] (H-LEHA-NH2), for which the “Number of Viable Cells (cells)” value in data set [1] (peptide 10 μg/ml) is on record as 2.6 × 10^4 cells.

Consider `CC(C)C[C@H](N)C(=O)N[C@@H](CC(=O)O)C(=O)N[C@@H](Cc1c[nH]cn1)C(=O)N[C@@H](C)C(=O)O` [LDHA, Leu-Asp-His-Ala] (H-LDHA-OH), for which, in data set [1] (1 μg/ml, versus control), the “number of viable cells, result in words” value is listed as “no decrease”. Also, the “Number of Viable Cells (cells)” value in data set [1] (peptide 1 μg/ml) is 3.3 × 10^4 cells.

On to `CC(C)C[C@H](N)C(=O)N[C@@H](CCC(=O)O)C(=O)N[C@@H](Cc1c[nH]cn1)C(=O)O` [LEH, Leu-Glu-His] (H-Leu-Glu-His-OH), for which the “number of viable cells, result in words” value in data set [2] was “no significant decrease”.

In the case of `CC(C)C[C@H](N)C(=O)N[C@@H](CCC(=O)O)C(=O)N[C@@H](Cc1c[nH]cn1)C(=O)N[C@@H](C)C(=O)O` [LEHA, Leu-Glu-His-Ala] (H-LEHA-OH), in data set [1] (LEH and LEHA peptides prepared from soy protein, stated in present tense), the “number of viable cells, result in words” value is reported as “no significant decrease”. In addition, the “Number of Viable Cells (cells)” value in data set [1] (peptide 10 μg/ml) was 2.9 × 10^4 cells.

Turning to `CC(C)C[C@H](N)C(=O)N[C@@H](CCC(=O)O)C(=O)N[C@@H](CCCCN)C(=O)N[C@@H](C)C(=O)O` [LEKA, Leu-Glu-Lys-Ala] (H-LEKA-OH), in data set [1] (10 μg/ml, versus control), the “number of viable cells, result in words” value is on record as “no decrease”. Besides, the “Number of Viable Cells (cells)” value in data set [1] (peptide 10 μg/ml) is 3.6 × 10^4 cells.

For `CC(=O)N[C@@H](CC(C)C)C(=O)N[C@@H](CCC(=O)O)C(=O)N[C@@H](Cc1c[nH]cn1)C(=O)N[C@@H](C)C(=O)O` [N-terminal-Acetylated-LEHA] (Ac-LEHA-OH), in data set [1] (peptide 10 μg/ml), the “Number of Viable Cells (cells)” value is on record as 2.8 × 10^4 cells.

In the case of LEHAF [LEHAF, Leu-Glu-His-Ala-Phe], the “number of viable cells, result in words” value in data set [1] (1 or 3 μg/ml, versus control) is listed as “no significant decrease”. The “Number of Viable Cells (cells)” value in data set [1] (peptide 1 μg/ml) and in data set [1] (peptide 3 μg/ml) was 3.0 × 10^4 cells in each case.
